In assay [1] the target is Kappa-type opioid receptor (Homo sapiens, UniProt P41145). The assay is described as follows: Agonist activity at human recombinant kappa opioid receptor expressed in rat RBL cells assessed as stimulation of intracellular calcium levels incubated at room temperature by fluorimetry. It is filed as functional, cell-based. For orientation: A change in cytosolic calcium serves as a functional read-out for many receptors and channels.

For assay [2], the target named is T1, Alpha-1B adrenergic receptor (Homo sapiens) (UniProt P35368).
T1 sequence (whole entry): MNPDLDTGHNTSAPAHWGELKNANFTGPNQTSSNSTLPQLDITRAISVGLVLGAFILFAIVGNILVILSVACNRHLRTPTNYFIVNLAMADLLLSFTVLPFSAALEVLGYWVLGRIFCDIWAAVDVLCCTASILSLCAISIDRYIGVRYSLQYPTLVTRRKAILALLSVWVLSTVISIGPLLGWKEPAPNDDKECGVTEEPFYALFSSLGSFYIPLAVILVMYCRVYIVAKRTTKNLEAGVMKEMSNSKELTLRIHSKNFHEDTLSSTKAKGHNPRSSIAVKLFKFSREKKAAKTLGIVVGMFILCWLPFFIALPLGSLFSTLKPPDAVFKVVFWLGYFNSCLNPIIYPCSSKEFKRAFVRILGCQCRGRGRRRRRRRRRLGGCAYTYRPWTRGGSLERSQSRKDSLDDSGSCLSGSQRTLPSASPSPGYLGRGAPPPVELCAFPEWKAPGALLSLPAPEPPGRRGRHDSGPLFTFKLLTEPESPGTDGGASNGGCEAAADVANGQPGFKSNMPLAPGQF
Particulars: CHO, 100 nM.

Assay [3] addresses T2, Alpha-2B adrenergic receptor (Homo sapiens) (UniProt P18089).
T2 sequence (whole entry): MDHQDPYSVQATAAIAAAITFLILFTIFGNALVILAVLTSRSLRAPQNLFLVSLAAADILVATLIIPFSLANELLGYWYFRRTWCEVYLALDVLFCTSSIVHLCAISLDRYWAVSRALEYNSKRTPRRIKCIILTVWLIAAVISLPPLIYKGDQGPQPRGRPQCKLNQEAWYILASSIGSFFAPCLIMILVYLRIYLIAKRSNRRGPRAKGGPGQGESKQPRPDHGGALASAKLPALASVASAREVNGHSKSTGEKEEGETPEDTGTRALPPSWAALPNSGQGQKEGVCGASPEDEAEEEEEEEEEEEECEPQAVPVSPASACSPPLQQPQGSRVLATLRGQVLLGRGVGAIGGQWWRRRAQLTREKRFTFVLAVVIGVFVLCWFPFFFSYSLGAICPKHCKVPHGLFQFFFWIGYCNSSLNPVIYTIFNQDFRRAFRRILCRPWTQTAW
Particulars: CHO, 100 nM.

The target of assay [4] is T3, Alpha-1A adrenergic receptor (Homo sapiens, UniProt P35348).
T3 sequence (P35348 whole entry): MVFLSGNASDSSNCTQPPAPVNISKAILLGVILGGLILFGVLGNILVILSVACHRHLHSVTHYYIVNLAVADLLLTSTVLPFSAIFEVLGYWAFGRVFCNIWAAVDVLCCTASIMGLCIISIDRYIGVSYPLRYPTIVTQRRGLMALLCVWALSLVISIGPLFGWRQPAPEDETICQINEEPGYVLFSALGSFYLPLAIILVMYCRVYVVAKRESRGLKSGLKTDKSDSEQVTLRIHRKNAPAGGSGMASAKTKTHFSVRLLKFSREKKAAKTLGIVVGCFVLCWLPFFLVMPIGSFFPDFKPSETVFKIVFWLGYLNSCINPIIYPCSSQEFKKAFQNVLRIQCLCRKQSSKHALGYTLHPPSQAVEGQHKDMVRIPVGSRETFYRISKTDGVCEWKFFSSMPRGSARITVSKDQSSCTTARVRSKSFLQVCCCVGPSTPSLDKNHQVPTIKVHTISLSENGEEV
Briefly: Displacement of [3H]prazosin from human recombinant adrenergic alpha-1A receptor expressed in CHO cell membranes incubated for 60 mins.

The target of assay [5] is T4, Alpha-1D adrenergic receptor (Homo sapiens) (UniProt P25100).
T4 sequence (whole entry): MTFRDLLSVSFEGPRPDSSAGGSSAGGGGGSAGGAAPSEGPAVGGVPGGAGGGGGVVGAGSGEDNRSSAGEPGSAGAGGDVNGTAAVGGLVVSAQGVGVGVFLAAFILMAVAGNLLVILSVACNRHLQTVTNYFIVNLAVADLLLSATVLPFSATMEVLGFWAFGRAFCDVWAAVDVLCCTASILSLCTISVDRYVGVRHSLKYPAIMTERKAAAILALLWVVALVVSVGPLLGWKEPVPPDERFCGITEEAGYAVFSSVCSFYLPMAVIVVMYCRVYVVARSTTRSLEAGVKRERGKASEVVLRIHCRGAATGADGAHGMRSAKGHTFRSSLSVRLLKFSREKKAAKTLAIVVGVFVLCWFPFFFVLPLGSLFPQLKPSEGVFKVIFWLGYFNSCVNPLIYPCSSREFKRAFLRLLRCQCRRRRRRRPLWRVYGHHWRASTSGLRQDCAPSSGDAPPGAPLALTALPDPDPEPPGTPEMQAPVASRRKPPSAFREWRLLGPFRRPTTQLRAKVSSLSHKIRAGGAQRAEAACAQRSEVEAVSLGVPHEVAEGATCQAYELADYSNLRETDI
The assay is described as follows: Partial agonist activity at human recombinant adrenergic alpha-1D receptor expressed in rat RBL cells assessed as stimulation of intracellular calcium levels incubated at room temperature by fluorimetry. It is filed as functional, cell-based.

A further assay addresses Mu-type opioid receptor (Homo sapiens, UniProt P35372). To be noted: HEK293, 100 nM.
For assay [6], the target named is T5, Alpha-2C adrenergic receptor (Homo sapiens) (UniProt P18825).
T5 sequence (whole entry): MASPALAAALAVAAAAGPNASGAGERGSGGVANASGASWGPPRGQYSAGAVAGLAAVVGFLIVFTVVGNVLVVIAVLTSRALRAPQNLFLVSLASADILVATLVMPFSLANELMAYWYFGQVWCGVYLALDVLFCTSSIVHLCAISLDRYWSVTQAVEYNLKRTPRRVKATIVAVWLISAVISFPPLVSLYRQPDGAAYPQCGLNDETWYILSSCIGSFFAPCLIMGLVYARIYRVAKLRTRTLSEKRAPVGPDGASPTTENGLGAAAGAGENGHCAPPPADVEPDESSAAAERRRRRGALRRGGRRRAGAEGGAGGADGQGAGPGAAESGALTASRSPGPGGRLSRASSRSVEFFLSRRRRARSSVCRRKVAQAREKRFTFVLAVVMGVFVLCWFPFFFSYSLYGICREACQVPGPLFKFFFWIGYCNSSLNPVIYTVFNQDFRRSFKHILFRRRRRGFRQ
The assay is described as follows: Competitive antagonist activity at human recombinant adrenergic alpha-2C receptor expressed in CHO cells assessed as inhibition of epinephrine-induced intracellular calcium levels incubated at room temperature by fluorimetry. It is filed as functional, cell-based.

Assay [7] has as its target Nociceptin receptor (Homo sapiens) (UniProt P41146). Particulars: 100 nM.
Assay [8] concerns the target T6, Alpha-1B adrenergic receptor (Homo sapiens, UniProt P35368).
T6 sequence (P35368 whole entry): T1 sequence (whole entry)
The assay is described as follows: Displacement of [3H]prazosin from human recombinant adrenergic alpha-1B receptor expressed in CHO cell membranes incubated for 60 mins.

This is an account of results in ChEMBL document CHEMBL4376854, “Investigation of the Adrenergic and Opioid Binding Affinities, Metabolic Stability, Plasma Protein Binding Properties, and Functional Effects of Selected Indole-Based Kratom Alkaloids” (J Med Chem, 2020).

The term inhibition denotes the drop in the measured response relative to a control, in per cent. For orientation: Ki means the dissociation constant of the complex between target and ligand, obtained from inhibition or displacement.

Structures are written as SMILES. Active and inactive are the calls of the source. The calls are words filed in the database; no cut-off is given here.

Mu-type opioid receptor, sequence (P35372 whole entry): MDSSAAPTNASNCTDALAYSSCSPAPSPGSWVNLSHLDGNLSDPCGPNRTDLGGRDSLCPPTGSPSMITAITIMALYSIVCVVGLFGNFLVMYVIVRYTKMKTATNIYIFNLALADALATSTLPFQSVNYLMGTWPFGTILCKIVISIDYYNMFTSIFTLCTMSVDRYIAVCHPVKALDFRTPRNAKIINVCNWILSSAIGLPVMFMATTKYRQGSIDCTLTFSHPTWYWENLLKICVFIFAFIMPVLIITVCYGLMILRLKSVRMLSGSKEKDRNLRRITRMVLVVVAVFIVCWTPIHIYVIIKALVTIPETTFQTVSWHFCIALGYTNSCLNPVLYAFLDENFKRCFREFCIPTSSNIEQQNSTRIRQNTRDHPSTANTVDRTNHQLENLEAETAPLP
Nociceptin receptor (Homo sapiens), sequence (P41146 whole entry): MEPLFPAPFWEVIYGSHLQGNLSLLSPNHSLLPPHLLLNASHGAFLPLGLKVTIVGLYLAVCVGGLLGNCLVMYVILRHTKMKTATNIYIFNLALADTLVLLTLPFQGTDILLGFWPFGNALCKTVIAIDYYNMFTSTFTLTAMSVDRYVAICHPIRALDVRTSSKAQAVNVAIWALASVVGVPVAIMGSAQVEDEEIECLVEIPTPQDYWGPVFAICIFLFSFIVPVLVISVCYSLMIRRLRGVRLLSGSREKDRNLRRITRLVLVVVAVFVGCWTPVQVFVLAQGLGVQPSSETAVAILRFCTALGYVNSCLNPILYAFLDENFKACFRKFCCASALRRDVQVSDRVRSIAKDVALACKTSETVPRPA
Kappa-type opioid receptor, sequence (P41145 whole entry): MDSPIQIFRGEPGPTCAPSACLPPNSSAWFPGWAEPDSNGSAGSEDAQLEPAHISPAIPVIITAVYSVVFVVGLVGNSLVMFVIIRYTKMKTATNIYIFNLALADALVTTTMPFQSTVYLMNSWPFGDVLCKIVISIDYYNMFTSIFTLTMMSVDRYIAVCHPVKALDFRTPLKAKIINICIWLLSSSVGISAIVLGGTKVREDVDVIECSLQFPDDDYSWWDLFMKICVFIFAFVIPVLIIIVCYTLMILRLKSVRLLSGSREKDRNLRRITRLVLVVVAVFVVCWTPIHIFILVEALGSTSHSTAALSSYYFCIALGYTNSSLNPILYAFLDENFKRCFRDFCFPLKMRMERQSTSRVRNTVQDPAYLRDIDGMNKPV

Consider `CC[C@@H]1CN2CCc3c([nH]c4cccc(OC)c34)[C@H]2C[C@@H]1/C(=C\OC)C(=O)OC`, for which the outcome in assay [1] was inactive. In addition, the values for the inhibition in assay [2] and in assay [3] were 25.2% and 0%, respectively.

For the molecule `CC[C@@H]1CN2CCc3c([nH]c4cccc(OC)c34)[C@@H]2C[C@@H]1/C(=C\OC)C(=O)OC`, the Ki in assay [4] came to 1.34 µM; in assay [8] it was 4.77 µM. Besides, in assay [5], the outcome was Active. In addition, the inhibition on Mu-type opioid receptor came to 29%; in assay [7] it was 4.3%. In addition, the inhibition entry in assay [6] was “Active”.
